In ChEMBL document CHEMBL5230103, “Hydroxamic acid hybrids as the potential anticancer agents: An Overview” (Eur J Med Chem, 2020):

How the values were obtained:
MV4-11 = test: Cytotoxicity against human MV4-11 cells assessed as inhibition of cell growth by SRB assay; assay type: functional, cell-based
PC-3 = test: Cytotoxicity against human PC-3 cells assessed as inhibition of cell growth by SRB assay; assay type: functional, cell-based
Histone deacetylase = test: Inhibition of HDAC (unknown origin); assay type: protein assay, Homo sapiens
HCT-116 = test: Cytotoxicity against human HCT-116 cells assessed as inhibition of cell growth by MTT assay; assay type: functional, cell-based
HepG2 = test: Cytotoxicity against human HepG2 cells assessed as inhibition of cell growth by MTT assay; assay type: functional, cell-based
MCF7 = test: Cytotoxicity against human MCF7 cells assessed as inhibition of cell growth by MTT assay; assay type: functional, cell-based

Row | IC50 (Histone deacetylase) [nM] | Structure (SMILES) | IC50 (MV4-11) [nM] | IC50 (PC-3) [nM] | IC50 (HCT-116) [nM] | IC50 (HepG2) [nM] | IC50 (MCF7) [nM]
1 | 35 | CC(C)n1cnc2c(-c3cccc(COCC(=O)NO)c3)nc(N3CCOCC3)nc21 | 160 | 160 |  |  | 
2 | 278 | CC(C)n1cnc2c(-c3ccc(OCCCCCCCC(=O)NO)cc3)nc(N3CCOCC3)nc21 | 970 | 970 |  |  | 
3 | 278 | CC(C)n1cnc2c(-c3ccc(COCCCCCC(=O)NO)cc3)nc(N3CCOCC3)nc21 | 970 | 970 |  |  | 
4 | 35 | CC(C)n1cnc2c(-c3cccc(COCCCCC(=O)NO)c3)nc(N3CCOCC3)nc21 | 160 | 160 |  |  | 
5 | 35 | CC(C)n1cnc2c(-c3cccc(OCC(=O)NO)c3)nc(N3CCOCC3)nc21 | 160 | 160 |  |  | 
6 |  | O=C(CCCCCCCn1cnc2c(c1=O)C1CCCCC1S2)NO (stereo not drawn) |  |  | 3320 | 3320 | 3320
7 | 35 | CC(C)n1cnc2c(-c3cccc(COCCCCCC(=O)NO)c3)nc(N3CCOCC3)nc21 | 160 | 160 |  |  | 
8 | 278 | CC(C)n1cnc2c(-c3ccc(COCC(=O)NO)cc3)nc(N3CCOCC3)nc21 | 970 | 970 |  |  | 
9 | 278 | CC(C)n1cnc2c(-c3ccc(OCC(=O)NO)cc3)nc(N3CCOCC3)nc21 | 970 | 970 |  |  | 
10 |  | O=C(Cn1cnc2c(c1=O)C1CCCCC1S2)NCc1ccc(C(=O)NO)cc1 (stereo not drawn) |  |  | 4860 | 4860 | 4860
11 | 35 | CC(C)n1cnc2c(-c3cccc(OCCCCCC(=O)NO)c3)nc(N3CCOCC3)nc21 | 160 | 160 |  |  | 
12 | 278 | CC(C)n1cnc2c(-c3ccc(OCCCCCC(=O)NO)cc3)nc(N3CCOCC3)nc21 | 970 | 970 |  |  | 
13 | 278 | CC(C)n1cnc2c(-c3ccc(OCCCCCCC(=O)NO)cc3)nc(N3CCOCC3)nc21 | 970 | 970 |  |  | 
14 |  | O=C(Cn1cnc2c(c1=O)C1CCCCC1S2)Nc1ccc(C(=O)NO)cc1 (stereo not drawn) |  |  | 4860 | 4860 | 4860
15 | 278 | CC(C)n1cnc2c(-c3ccc(OCCCCC(=O)NO)cc3)nc(N3CCOCC3)nc21 | 970 | 970 |  |  | 
16 |  | O=C(CCCCCCn1cnc2c(c1=O)C1CCCCC1S2)NO (stereo not drawn) |  |  | 3320 | 3320 | 3320
17 | 35 | CC(C)n1cnc2c(-c3cccc(COCCCCCCC(=O)NO)c3)nc(N3CCOCC3)nc21 | 160 | 160 |  |  | 
18 | 278 | CC(C)n1cnc2c(-c3ccc(COCCCCCCC(=O)NO)cc3)nc(N3CCOCC3)nc21 | 970 | 970 |  |  | 
19 |  | O=C(COc1ccc(C(=O)/C=C/c2ccc(F)cc2)cc1)NO |  |  | 620 | 620 | 620
20 |  | COc1ccc(/C=C/C(=O)c2ccc(OCC(=O)NO)cc2)cc1 |  |  | 620 | 620 | 620
21 | 278 | CC(C)n1cnc2c(-c3ccc(COCCCCC(=O)NO)cc3)nc(N3CCOCC3)nc21 | 970 | 970 |  |  | 
22 | 35 | CC(C)n1cnc2c(-c3cccc(COCCCCCCCC(=O)NO)c3)nc(N3CCOCC3)nc21 | 160 | 160 |  |  | 
23 |  | O=C(COc1ccc(C(=O)/C=C/c2ccccc2)cc1)NO |  |  | 620 | 620 | 620
24 | 35 | CC(C)n1cnc2c(-c3cccc(OCCCCCCC(=O)NO)c3)nc(N3CCOCC3)nc21 | 160 | 160 |  |  | 
25 | 35 | CC(C)n1cnc2c(-c3cccc(OCCCCCCCC(=O)NO)c3)nc(N3CCOCC3)nc21 | 160 | 160 |  |  | 
26 | 278 | CC(C)n1cnc2c(-c3ccc(COCCCCCCCC(=O)NO)cc3)nc(N3CCOCC3)nc21 | 970 | 970 |  |  | 
